# Measured values reported in patent US6235891A, “Glucocorticoid receptor agonist and decreased PP5” (South Alabama Medical Science Foundation, priority 1999, dated 2001).
# Test system: PP5 mRNA
# Assay: Northern blot analysis of PP5 mRNA expression in A549 cells
# Assay type: cell-based, human
# Settings: doses of 25 to 500 nM, read-out: IC50 for reduction of PP5 mRNA levels
# Excerpt: The oligonucleotides shown in Table 1 were designed using the Genbank sequences HSSERTHRP (Genbank accession number X92121), HSRNAPPP5 (Genbank accession number X89416) and PPP5C (Genbank accession number U25174), synthesized and tested for inhibition of PP5 mRNA expression in A549 cells using a Northern blot assay. All oligonucleotides shown in Table 1 are chimeric oligonucleotides with central 2'-deoxy "gaps," which have phosphorothioate backbones, flanked on both sides by 2'-methoxyethoxy (2'-MOE) "wings" (shown in bold), which have phosphodiester backbones. All cytosines in the 2'-MOE wings are 5-methylcytosines.
# In the initial screen, A549 cells were treated with oligonucleotides at a concentration of 300 nM oligonucleotide for four hours in the presence of […] lipofectin. Results were normalized and expressed as a percent of control. The effect of each oligonucleotide on levels of PP5 mRNA, expressed as approximate percent inhibition compared to control, is shown in Table 1. In this initial screen, oligonucleotides giving a reduction of PP5 mRNA of approximately 50% or greater were considered active. […] These sequences (SEQ ID NO: 1, 2, 3, 4, 6, 7 and 12, respectively, SEQ ID Nos shown in bold in Table 1) are therefore preferred.
# These oligonucleotides were tested for their ability to reduce PP5 mRNA levels in A549 cells, using oligonucleotide doses of 25 to 500 nM.
# The human lung tumor cell line A549 was obtained from the American Type Culture Collection (Rockville Md.) and were grown in DMEM (Gibco BRL, Gaithersburg Md.), supplemented with 10% fetal calf. Cells were seeded on 60 mm plates. When they reached 70% confluency, they were washed with DMEM and 1 ml of DMEM containing 15 μg/ml DOTMA/DOPE (Lipofectin®, GIBCO-BRL) and oligonucleotide at desired concentration was added. Duplicate dishes were used for each treatment condition. After 4 hours of treatment at 37°, cells were washed and cultured in fresh DMEM containing 10% fetal bovine serum for an additional 17 hours. Cells were then harvested and total RNA was extracted with TRIzol Reagent (GIBCO-BRL) according to manufacturer's protocol. Total RNA (20 μg) was fractionated on a 1% agarose gel containing formaldehyde, and transferred to a DURLON-UV (Stratagene) nylon membrane. Following UV crosslinking, the filters were hybridized with the appropriate protein phosphatase probe. The ^32 P-labeled human PP cDNA probes are generated with DECAPrime® DNA Labeling Kit (Ambion) according to the manufacturer's protocol. Hybridization was performed in a hybridization solution containing 50% formamide at 42° for 16 hours. This was followed by two low stringency washes (2×SSC) at room temperature and two high stringency washes (0.1×SSC/0.5% SDS) at 55° C. Hybridization signals were visualized by autoradiography, and filters were then stripped and reprobed with a ^32 P-labeled glyceraldehyde-3-phosphate dehydrogenase (GAPDH) probe to confirm equal loading. The densities of hybridization signals were measured with the NIH Image program (ImagePC).
# The cells were harvested, and total RNA was extracted with TRIzol® Reagent according to the methods of the manufacturer. Total RNA (20 μg) was fractionated on 1% agarose gels containing formaldehyde and transferred to DURLON-UV nylon membranes (Stratagene). Following UV cross-linking, the filters were hybridized with a [α^32 P]probe for human PP5. The human PP5 cDNA probe was generated from the full length coding region of PP5 and [α^32 P]-dATP was labeled with DECAprime® DNA Labeling Kit according to the manufacturer's protocol. Hybridization was performed in the presence of 50% formamide, 0.1 M Pipes, 0.8 M NaCl, 5×Denhardt's solution, 100 μg/ml denatured herring sperm DNA, 1×10^6 cpm/ml [α-^32 P]-labeled probe and 10% dextran sulfate at 42° C. for 16 hours. Following hybridization, the membrane was subjected to two low stringency washes (2×SSC) at room temperature and then two high stringency washes (0.1×SSC/0.5% SDS) at 55° C. […]
substance,measurement,value
"ISIS 15534: chimeric PP5 antisense oligonucleotide, P=O wings, P=S deoxy gap; GGGCCCTATTGCTTGAGTGG, SEQ ID NO: 12 (sugars by position and backbone not given here; chimeric, phosphodiester wings, phosphorothioate deoxy gap)",IC50,~0.135 µM
